Consider seven substances from article PMC4436313, “Novel Heparan Sulfate-Binding Peptides for Blocking Herpesvirus Entry” (PLoS ONE, 2015).

Ends that are not written are not given here.

The subject of data set [1] is HCMV TB40/E-pp150-GFP adsorption to HFF cells. The data set is described as follows: Flow cytometric analysis of attached virus. As to conditions: peptide 100μM, HFF cells at 4°C, 1/2 h, then HCMV TB40/E pp150-GFP MOI 10 for 1h; GFP MFI vs PBS treated cells; 3 replicates. The data set is classed as cell-based, Human cytomegalovirus. On the procedure: HFF cells were grown in a 24 well dish and allowed to reach ~80% confluency. The cells were cooled to 4°C to prevent virus internalization before addition of peptide (100μM) and incubated for ½ h. Following the incubation, HCMV TB40/E pp150-GFP was added (MOI 10) at 4°C and incubated for 1h. Following the incubation, cells were removed from the wells using non-enzymatic cell stripper solution (Corning), fixed (with paraformaldehyde) and the data acquired using a BD FACS Calibur flowcytometer (BD Biosciences). The data was analyzed using FlowJo software (TreeStar).
Fig 5 Peptide p5+14 blocks adsorption of MCMV. (A) MCMV was preincubated with p5+14 peptide (100 μM) before diluting the virus/peptide to an ineffective peptide concentration (1 μM) and assayed in the plaque reduction assay as described in materials and methods. As a control, virus and peptide (100 μM) were added to cells simultaneously. […] Plaque reduction was measured in a plaque reduction assay. […] (C) Adsorption of HCMV TB40/E-pp150-GFP (MOI 10) fusion protein expressing HCMV was measured via flowcytometry in the presence of p5+14 (green), control peptide CGGY-p5G (orange) and PBS (blue). […] Inset is a scatter plot of the mean fluorescence intensity (MFI) for GFP with the line representing average of 3 replicates +/- SD for the different treatments.
A general note: Flow cytometry measures light scatter and fluorescence of single cells or particles in a stream.

Data set [2] concerns MEF 10.1 cells. The data set is described as follows: Visualization of bound biotinylated peptide by fluorescence microscopy. The data set is classed as binding, Mouse. The following applies: biotinylated peptide 1.6 μg/mL in PBS overnight at 4°C, fixed MEF cells, Alexa Fluor 594-conjugated streptavidin. On the procedure:
Coverslips with fixed MEF cells were prepared, washed in PBS, and blocked with 1% BSA/PBS for 5 min. Following a PBS wash, the nuclei were stained using Hoechst (Life Technologies Molecular Probes, Grand Island, NY) 1:100 in H2O for 30 min at 37°C. Cells were then blocked using a casein block solution (Scytek) for 5 min, AVIDIN/Biotin blocks (VECTOR) for 20 min each at room temperature (RT) followed by a 5 min PBS wash. Biotinylated p5+14 or CGGY-p5G (control) at 1.6 μg/mL in PBS was added and incubated overnight at 4°C. Following a PBS wash Alexa Fluor 594-conjugated streptavidin (Molecular Probes) was added at a 1:200 dilution in PBS for 1h at RT. Cells were then permeabilized with 0.2% Triton X-100 (Sigma) in PBS for 10 min at RT and washed with a solution of 1% BSA in PBS for 30 min. The cells were then stained with Alexa Fluor 488-conjugated phalloidin (Molecular Probes) at a 1:100 dilution of stock in 1% BSA/PBS, for 45 min at RT to visualize actin filaments. Slides were cover-slipped using a fluorescent mounting medium (Dako) to minimize photobleaching.
Fig 2 p5+14 binding to cells is charge dependent. (A) Predicted α-helix structure of peptide p5+14 based on ITASSER modeling. (B) Biotinylated peptide p5+14 (left panel) or CGGY-p5G (right panel) was added to MEF 10.1 cells followed by addition of Alexa Fluor 594-conjugated streptavidin (red). […]

The subject of data set [3] is MCMV. The following applies: for Plaque Reduction (Average from Fig 1): peptide 500 μg/ml, incubated with MEF 10.1 cells 30 min prior to MCMV (~100 pfu/well), percent reduction vs PBS-treated control, three independent experiments, at least three replicates each. On the procedure: Peptides were screened for their ability to reduce viral infection using a plaque reduction assay. Cells were cultured in 12-well (VERO) or 24-well culture plates (MEF 10.1 and HFF). When cells reached ~80% confluence the media was removed and washed once with PBS before addition of peptide. As a control, cells were incubated with PBS alone. After a 30 min incubation with peptide in PBS, virus (~100 pfu/well for MCMV and ~30–40 pfu/well for HCMV and HSV) was added and incubated for another 90 min (HSV and HCMV) or 60 min (MCMV). Following virus incubation the peptide/virus mixture was removed and replaced with 0.75% carboxymethyl cellulose (Sigma Aldrich, St. Louis, MO) (CMC) + complete media (DMEM + P/S + L-Gln) for MCMV and HSV experiments or 0.5% agarose (Lonza, Rockland, ME) in complete media for HCMV experiments. The plates were incubated at 37° C in 5% CO2 for 4 days and when plaques began to develop, plates were stained with Coomassie stain (AMRESCO, Solon, Ohio). Due to the inability of HCMV to form distinct plaques on HAEC and ARPE-19 cells, infection in these cell types was measured by counting mCherry positive foci 14 days post infection. Plaques were counted manually using a dissection microscope. Data was analyzed using Prism 5.0 (GraphPad Software, La Jolla, CA). Data were expressed as percent infection (100 x (number of plaques after treatment/ the number of plaques in the PBS-treated wells)).
Seven synthetic peptides based on the structure of peptide p5 were screened for their ability to reduce MCMV infection in vitro (Table 1). In the initial screening assays all peptides were tested at a single concentration (500 μg/ml) using a plaque-reduction assay, in which mouse embryonic fibroblasts were incubated with the peptides for 30 min prior to the addition of virus.
(A) Peptides (500 μg/ml) with different net charges and lengths were incubated with cells 30 min prior to addition of MCMV (~100 pfu/well). Bars represent the average of the percent reduction in infection compared to PBS-treated control from three independent experiments with at least three replicates in each + SD. (B) p5+14 and CGGY-p5G (control peptide) were serially diluted and assayed in a plaque reduction assay as described in materials and methods.

A short description of data set [4]: Self-aggregation of peptide (data not shown). The data set is classed as physicochemical.
The subject of data set [5] is MCMV. In words: Heparin blockade of peptide-mediated plaque reduction. The format is cell-based, murine CMV (MCMV). On the procedure:
Peptide p5+14 (100 μM) was pre-incubated with heparin sodium salt (Acros Organics, NJ) at different concentrations for 1 h at 37°C. This heparin/peptide mix was added to the cells and incubated for 30 min at 37°C. Following the incubation, supernatant was aspirated and cells washed once with PBS to remove unbound/excess heparin or peptide. The cells were subsequently infected with ~100 pfu/well of MCMV. To test whether heparin treatment of cells interferes with virus infection, MEF 10.1 cells in a 24 well dish were pre-incubated with different concentrations of heparin for 1 hour and washed as described above. Following this pre-incubation, infection was initiated as described above. Finally to test the effect of heparin treatment on the infectivity of virus, MCMV was incubated with different concentrations of heparin for 1h before infecting cells. For all treatments, virus was removed 1h post infection and cells were overlaid with CMC. Plates were incubated for 4 days before staining and counting the plaques.
Fig 3 Soluble heparin interferes with peptide inhibition of virus infection. The effect of heparin on the activity of peptide and MCMV viral infectivity in vitro when (A) pre-incubated with the peptide (100 μM), (B) incubated with the cells before adding virus, and (C) pre-incubated with virus alone in a plaque reduction assay. […]

As to “CGGYSGAQGAQAGQAGQAQGAQGAQAGQAGQ [CGGY-p5G, uncharged p5 variant, replaces Lys with Gly throughout; control peptide]”, in data set [1], the “Fluorescent virus attached to the cell surface” value is reported as “no reduction in fluorescence”. Further, the “Binding of biotinylated peptide to mouse fibroblasts” value in data set [2] is reported as “did not bind”.
With “CGGYSKAQKAQAKQAKQAQKAQKAQAKQAKQ [CGGY-p5, p5 variant with N-terminal Cys residue generated to facilitate incorporation of 99mTc]”, the “Plaque Reduction (Average from Fig 1)” value in data set [3] is approximately 61%. Besides, in data set [4], the Self-aggregation entry is “prone to self-aggregation”.
As to “GGGYSKAQKAQAKQAKQAQKAQKAQAKQAKQ [p5]”, in data set [3], the “Plaque Reduction (Average from Fig 1)” value is on record as approximately 53%.
“GGGYSRAQRAQARQARQAQRAQRAQARQARQ [p5R]”: the “Blocking of viral infection compared to peptide p5” value in data set [3] (from Fig 1A, 500 μg/ml, MCMV) came out at 2 fold. Also, the “Plaque Reduction (Average from Fig 1)” value in data set [3] is recorded as approximately 75%.
With “GGGYSKAQKAQAKQAKQAQKAQKAQAKQAKQAQKAQKAQAKQAKQ [p5+14]”, in data set [3] (read-out: IC50, reduction of MCMV infection, serial dilution of peptide, plaque reduction assay, MEF 10.1), the concentration for half-maximal inhibition (IC50) (usually the concentration that inhibits the measured activity by half) was found to be 5.2 µM.
On to MPRRR RIRRR QK [G2, reference compound], for which the “Reduction in MCMV infection at 10 μM” value in data set [3] (peptide 10 μM, plaque reduction assay, comparison p5+14 vs G2) is recorded as “ineffective”. Further, in data set [3] (peptide 100 μM, plaque reduction assay, comparison p5+14 vs G2), the “Inhibition of MCMV infection at 100 μM” value was “effectively inhibited MCMV infection”.
For heparin sodium salt, the “Reduction of infection, heparin pre-incubated with MCMV” value in data set [5] (MCMV incubated with heparin 1 h without peptide, all heparin concentrations ≥ 2 μg/mL) is reported as more than 80%. Besides, the “MCMV infection after pre-incubation of the cells with heparin” value in data set [5] (MEF 10.1 cells pre-incubated with heparin 1 hour and washed prior to virus addition, no peptide) is “did not alter MCMV infection”.
